Experimental data: PubChem BioAssay (NCI)
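A five-concentration, 48-hour dose response in 96-well plates underlies each endpoint, interpolated linearly between surrounding concentrations. GI50: concentration for 50% inhibition of growth. TGI is the concentration that stops growth completely.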

Experiments:
Assay in all cases: NCI-60 cell line screen, 48 h
OVCAR-4 ovarian = system: OVCAR-4 ovarian
MDA-MB-231 breast = system: MDA-MB-231 breast
CCRF-CEM leukemia = system: CCRF-CEM leukemia
SR leukemia = system: SR leukemia
MCF7 breast = system: MCF7 breast
KM12 colon = system: KM12 colon
SK-MEL-5 melanoma = system: SK-MEL-5 melanoma
T-47D breast = system: T-47D breast
HCC-2998 colon = system: HCC-2998 colon
HT29 colon = system: HT29 colon

COC(=O)[C@@H](C)C[C@H](Cc1cn(C)c2ccccc12)NC(=O)c1csc([C@@H](C[C@H](C(C)C)N(C)C(=O)[C@@H](NC(=O)[C@H]2CCCCN2C)C(C)C)OC(C)=O)n1
GI50 (OVCAR-4 ovarian): 0.575 µM | TGI (OVCAR-4 ovarian): > 16.7 µM | GI50 (MDA-MB-231 breast): 0.0239 µM | TGI (MDA-MB-231 breast): 0.966 µM | GI50 (CCRF-CEM leukemia): 0.00779 µM | TGI (CCRF-CEM leukemia): > 16.7 µM | GI50 (SR leukemia): 0.00298 µM | TGI (SR leukemia): > 16.7 µM | GI50 (MCF7 breast): 0.00524 µM | TGI (MCF7 breast): > 16.7 µM | GI50 (KM12 colon): 0.0108 µM | TGI (KM12 colon): > 16.7 µM | GI50 (SK-MEL-5 melanoma): 0.00595 µM | TGI (SK-MEL-5 melanoma): 0.252 µM | GI50 (T-47D breast): > 16.7 µM | TGI (T-47D breast): > 16.7 µM | GI50 (HCC-2998 colon): 0.0925 µM | TGI (HCC-2998 colon): > 16.7 µM | GI50 (HT29 colon): 0.00632 µM | TGI (HT29 colon): > 6.31 µM

CCN(CC)CCNc1ccc(C)c2sc3cc(Cl)ccc3c(=O)c12
GI50 (OVCAR-4 ovarian): 1.95 µM | TGI (OVCAR-4 ovarian): 5.13 µM | GI50 (MDA-MB-231 breast): 1.41 µM | TGI (MDA-MB-231 breast): 2.93 µM | GI50 (CCRF-CEM leukemia): 1.44 µM | TGI (CCRF-CEM leukemia): 3.36 µM | GI50 (SR leukemia): 1.6 µM | TGI (SR leukemia): 3.57 µM | GI50 (MCF7 breast): 1.55 µM | TGI (MCF7 breast): 3.2 µM | GI50 (KM12 colon): 1.75 µM | TGI (KM12 colon): 3.26 µM | GI50 (SK-MEL-5 melanoma): 1.68 µM | TGI (SK-MEL-5 melanoma): 3.07 µM | GI50 (T-47D breast): 1.65 µM | TGI (T-47D breast): 4.02 µM | GI50 (HCC-2998 colon): 1.75 µM | TGI (HCC-2998 colon): 3.58 µM | GI50 (HT29 colon): 1.94 µM | TGI (HT29 colon): 3.48 µM

CC1(C)N=C(N)N=C(N)N1c1ccc(CCCCc2ccccc2)c(Cl)c1
GI50 (OVCAR-4 ovarian): 0.0755 µM | TGI (OVCAR-4 ovarian): 9.66 µM | GI50 (MDA-MB-231 breast): 0.444 µM | TGI (MDA-MB-231 breast): 5.85 µM | GI50 (CCRF-CEM leukemia): 0.0374 µM | TGI (CCRF-CEM leukemia): 14.2 µM | GI50 (SR leukemia): 0.0259 µM | TGI (SR leukemia): 5.81 µM | GI50 (MCF7 breast): 0.0256 µM | TGI (MCF7 breast): 2.12 µM | GI50 (KM12 colon): 0.059 µM | TGI (KM12 colon): 1.42 µM | GI50 (SK-MEL-5 melanoma): 0.0628 µM | TGI (SK-MEL-5 melanoma): 1.32 µM | GI50 (T-47D breast): 0.499 µM | TGI (T-47D breast): 12.8 µM | GI50 (HCC-2998 colon): 0.131 µM | TGI (HCC-2998 colon): 3.52 µM | GI50 (HT29 colon): < 0.01 µM | TGI (HT29 colon): 1.55 µM

CN(C)c1ccc(/C=C/c2ccnc3c(O)cccc23)cc1
GI50 (OVCAR-4 ovarian): 0.404 µM | TGI (OVCAR-4 ovarian): > 100 µM | GI50 (MDA-MB-231 breast): 0.434 µM | TGI (MDA-MB-231 breast): > 100 µM | GI50 (CCRF-CEM leukemia): 0.333 µM | TGI (CCRF-CEM leukemia): > 100 µM | GI50 (SR leukemia): 0.321 µM | TGI (SR leukemia): > 100 µM | GI50 (MCF7 breast): 0.371 µM | TGI (MCF7 breast): > 100 µM | GI50 (KM12 colon): 0.399 µM | TGI (KM12 colon): > 100 µM | GI50 (SK-MEL-5 melanoma): 0.37 µM | TGI (SK-MEL-5 melanoma): 3.05 µM | GI50 (T-47D breast): 0.375 µM | TGI (T-47D breast): > 100 µM | GI50 (HCC-2998 colon): 2.09 µM | TGI (HCC-2998 colon): > 100 µM | GI50 (HT29 colon): 11.7 µM | TGI (HT29 colon): > 100 µM
